One assay addresses streptavidin (Streptomyces avidinii, UniProt P22629). Put plainly: biochemical.
Another assay concerns the target streptavidin-Cy5 (Streptomyces avidinii, UniProt P22629). Put plainly: Streptavidin-Cy5 binding to cyclic/linear peptide microarray, Cy5 fluorescence scan. The protocol:
Slides were bound with […] streptavidin-Cy5 in 30 mL binding buffer for 30 minutes at room temperature. Binding buffer contained 1% alkali soluble casein and 0.05% tween-20 in 1×TBS, pH 7.4. After 30 minutes, slides were washed twice in 1×TBS buffer for 1 minute, water for 30 seconds, and spun to dryness.
Cy5 fluorescence intensity of the arrays was measured with MS200 scanner (Roche NimbleGen) at resolution 2 um, wavelength 635 nm, gain 25% and laser intensity 100%. Cy5 signal intensities were extracted using Image Extraction Software (Roche NimbleGen). Data pre-processing, normalization and statistical tests were done in R. Data visualization and analysis were performed with Spotfire 6.5.0 (Tibco, Boston, Mass.) software platform.

Where [1] appears, read: extension of HPQ-specific design JXXHPQXXJU, all J combinations (Example 12), FIG. 15.

Square brackets hold non-standard residues; d marks the D form. Peptide text beside a SMILES is read from it. A value given as a limit tells only on which side of the number the result lay.

Sequence of streptavidin-Cy5 (P22629 25-183): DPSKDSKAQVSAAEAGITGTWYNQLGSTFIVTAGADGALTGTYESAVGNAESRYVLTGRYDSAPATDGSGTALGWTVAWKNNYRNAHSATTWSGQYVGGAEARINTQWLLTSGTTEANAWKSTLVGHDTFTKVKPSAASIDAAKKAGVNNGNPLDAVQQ
Sequence of streptavidin (P22629 25-183, species assumed): as the sequence (P22629 25-183) above

Take `CC(C)C[C@@H]1NC(=O)[C@H](CCC(N)=O)NC(=O)CNC(=O)CNC(=O)[C@H](CC(N)=O)NC(=O)[C@H](CCC(N)=O)NC(=O)[C@@H]2CCCN2C(=O)[C@H](Cc2c[nH]cn2)NC(=O)[C@H](CC(=O)O)NC(=O)[C@H](Cc2ccc(O)cc2)NC1=O` [cyclic LYDHPQNGGQ, LYDHPQNGGQ] (cyclo(DHPQNGGQLY)): the Kd (as a rule, the constant that tells how readily two partners part at equilibrium) on streptavidin amounted to 9.4 µM. In other words, the single-digit micromolar range.
Take `NC(=O)CC[C@@H]1NC(=O)[C@H](Cc2c[nH]c3ccccc23)NC(=O)[C@H]2CCCN2C(=O)[C@H](CCC(N)=O)NC(=O)[C@H](CC(N)=O)NC1=O` [cyclic NQpWQ, NQpWQ] (cyclo(NQ[dP]WQ)): the Kd at streptavidin is 61.3 µM.
The same measure, in the same setting: the result for `NC(=O)CC[C@@H]1NC(=O)CNC(=O)CNC(=O)[C@H](CC(N)=O)NC(=O)[C@H](CCC(N)=O)NC(=O)[C@@H]2CCCN2C(=O)[C@H](Cc2c[nH]cn2)NC(=O)[C@H](CC(=O)O)NC(=O)[C@H](CC(N)=O)NC(=O)[C@H](CCC(N)=O)NC1=O` [cyclic QNDHPQNGGQ, QNDHPQNGGQ] (cyclo(DHPQNGGQQN)) reads 10.8 µM; that for `NC(=O)CC[C@H](NC(=O)[C@H](Cc1c[nH]c2ccccc12)NC(=O)[C@H]1CCCN1C(=O)[C@H](CCC(N)=O)NC(=O)[C@@H](N)CC(N)=O)C(=O)O` [linear NH2-NQpWQ-COOH, NH2-NQpWQ-COOH] (H-NQ[dP]WQ-OH), greater than 2000 µM; that for “H-LYDHPQNGGQ-OH [linear NH2-LYDHPQNGGQ-COOH, NH2-LYDHPQNGGQ-COOH]”, 100 µM.
For the compound “H-QNDHPQNGGQ-OH [linear NH2-QNDHPQNGGQ-COOH, NH2-QNDHPQNGGQ-COOH]”, binding on streptavidin was put at a Kd of 320 µM. This Kd is about 3.2-fold higher than that of the compound before.
In the case of “LYDHPQNGGU (cyclo(LYDHPQNGGE); also: position 10: U in name, array-bound via glutamate side chain) [cylic LYDHPQNGGU, U = glutamate attached to the surface through its side chain]”, the cyclic fluorescent intensity entry in the assay with streptavidin-Cy5 (setting [1]) is on record as “highest cyclic intensity”.
For “NQpWU (cyclo(NQ[dP]WE); also: position 5: U in name, array-bound via glutamate side chain) [cylic NQpWU, U = glutamate attached to the surface through its side chain, p = D-proline]”, the cyclic fluorescent intensity entry with streptavidin-Cy5 (peptide library of the format XXXXU (Example 9), cyclic subarray, FIG. 10) is “highest cyclic fluorescent intensity”.
Consider “QNDHPQNGGU (cyclo(QNDHPQNGGE); also: position 10: U in name, array-bound via glutamate side chain) [cyclic QNDHPQNGGU, U = glutamate attached to the surface through its side chain]”, for which the “log fold change (logFC) between cyclic and linear fluorescent intensity” value with streptavidin-Cy5 (extension of HPQ-specific design JXXHPQXXJU (Example 12), FIG. 15, positive logFC = preference for cyclic peptide) is recorded as “high logFC”. For the same compound, the cyclic fluorescent intensity entry with streptavidin-Cy5 (setting [1]) is on record as “high cyclic intensitiy”.

For the origin of these results see US20160367961A1, “METHOD AND COMPOSITION FOR PEPTIDE C[…] PROTEASE TREATMENT” (Roche Sequencing Solutions, Inc., priority 2015, published 2016).
